The supplement of paper PMC8967900

Tests used:
Experiment in all cases: selective drug sensitivity score (sDSS, relative to normal bone marrow) (sDSS (score)); higher = more potent and effective on the cell line relative to normal bone marrow cells
Conditions in all cases: 72 h
COG-LL-317 = system: COG-LL-317
SUP-B15 = system: SUP-B15
ALL-PO = system: ALL-PO
DND-41 = system: DND-41
TANOUE = system: TANOUE
KASUMI-2 = system: KASUMI-2
380 = system: 380
COG-LL-332h = system: COG-LL-332h
MHH-CALL-4 = system: MHH-CALL-4
NALM-6 = system: NALM-6
MN-60 = system: MN-60
MOLT-4 = system: MOLT-4
JURKAT = system: JURKAT
HAL-01 = system: HAL-01
MOLT-14 = system: MOLT-14
HPB-ALL = system: HPB-ALL
P30-OHKUBO = system: P30-OHKUBO
KASUMI-10 = system: KASUMI-10
697 = system: 697
MHH-CALL-3 = system: MHH-CALL-3
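Further: ALL cell lines in 384-well plates, five doses spanning 10,000-fold, each plate scaled between vehicle and 100 µmol/L benzalkonium chloride controls, sDSS an adapted area-under-curve metric.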

Structure (SMILES)	selective drug sensitivity score (COG-LL-317)	selective drug sensitivity score (SUP-B15)	selective drug sensitivity score (ALL-PO)	selective drug sensitivity score (DND-41)	selective drug sensitivity score (TANOUE)	selective drug sensitivity score (KASUMI-2)	selective drug sensitivity score 380	selective drug sensitivity score (COG-LL-332h)	selective drug sensitivity score (MHH-CALL-4)	selective drug sensitivity score (NALM-6)	selective drug sensitivity score (MN-60)	selective drug sensitivity score (MOLT-4)	selective drug sensitivity score (JURKAT)	selective drug sensitivity score (HAL-01)	selective drug sensitivity score (MOLT-14)	selective drug sensitivity score (HPB-ALL)	selective drug sensitivity score (P30-OHKUBO)	selective drug sensitivity score (KASUMI-10)	selective drug sensitivity score 697	selective drug sensitivity score (MHH-CALL-3)
O=C1Cc2cc(C(=O)NC3C[C@H]4CC[C@@H](C3)N4S(=O)(=O)CC3CCN(CCCC(F)(F)F)CC3)c(Cl)cc2N1 (stereo not given in full) (top concentration 10000 nM)	0	0	0	0	0	0	0	0	0	0	0	0	0	0	0	0.5	0.5	0	0	0
CCCC(CCC)C(=O)O [Valproic_acid] (top concentration 1000000 nM)	0	0	0	0	0	0	0	0	0	0	0	0	0	0	0	0	0	0	0	0
Cc1cnc(-c2ccccc2C(C)C)nc1NCc1ccc(-n2ccnn2)cc1 [ML323] (top concentration 10000 nM)	1.04	2.94	3.14	1.34	1.44	0.14	-0.36	2.04	-0.36	1.84	0.04	1.34	4.14	0.04	1.94	0.64	0.54	-0.36	3.54	-0.36
NCCNc1ccc(NCCN)c2c1C(=O)c1ccncc1C2=O [Pixantrone] (top concentration 10000 nM)	-2.76	-2.76	-2.76	-1.76	-2.76	-2.76	-2.76	-2.46	-2.56	-2.76	-2.76	-2.76	-2.76	-1.36	-2.76	-2.66	-1.06	-1.36	-0.36	-2.76
C=CC(=O)Nc1cccc(Nc2nc(Nc3ccc(OCCOC)cc3)ncc2F)c1 [Spebrutinib] (top concentration 1000 nM)	-0.16	0.04	4.14	-0.16	-0.16	-0.16	-0.16	-0.16	3.24	2.04	-0.16	-0.16	0.74	8.34	-0.16	-0.16	4.64	3.64	1.94	2.34
CCCS(=O)(=O)Nc1ccc(F)c(C(=O)c2c[nH]c3ncc(-c4ccc(Cl)cc4)cc23)c1F [Vemurafenib] (top concentration 10000 nM)	3.26	2.26	2.46	3.66	-1.14	-1.14	-1.14	2.96	-0.94	-1.14	-1.14	2.26	2.26	0.16	2.66	-0.44	3.86	-0.84	5.16	-1.14
O=C(Nc1ccc(OC(F)(F)Cl)cc1)c1cnc(N2CC[C@@H](O)C2)c(-c2cc[nH]n2)c1 [Asciminib] (top concentration 1000 nM)	-0.88	26.2	-0.28	0.22	1.12	-1.98	1.92	5.62	7.12	0.42	-1.98	1.12	-0.58	-0.88	-0.28	1.62	-0.58	-1.98	-1.18	-0.98
C[C@H]1Oc2cc(cnc2N)-c2c(nn(C)c2C#N)CN(C)C(=O)c2ccc(F)cc21 (top concentration 1000 nM)	-0.72	-0.72	-0.72	-0.72	-0.72	4.68	-0.72	-0.72	-0.72	-0.72	-0.72	-0.72	-0.72	4.18	-0.72	-0.72	-0.02	-0.72	-0.72	-0.72
CCNCCS(=O)(=O)NC[C@@]1(c2ccccc2)SC(NC(=O)C(C)(C)C)=NN1C(=O)C(C)(C)C [Litronesib] (top concentration 1000 nM)	19.5	21.7	14.8	8.64	-7.36	18.9	19	22.1	8.54	21.5	4.64	13.8	19.2	1.94	20.7	19.7	19.6	14.7	20.9	7.44
Cc1ccc(NC(=O)c2ccc(CN3CC[C@H](N(C)C)C3)c(C(F)(F)F)c2)cc1Nc1nccc(-c2cncnc2)n1 [Bafetinib] (top concentration 1000 nM)	0	21.9	0	1	0	0.3	0	12.3	0	0	4	0	0	0	0.3	0	0	0	0	0
CN(C)CCCOc1ccc(-c2ccc3ncc4c(c3c2)n(C2CCOCC2)c(=O)n4C)cn1 [AZD0156] (top concentration 1000 nM)	-0.06	1.14	2.24	4.14	-0.06	2.84	2.24	0.64	1.54	-0.06	-0.06	-0.06	-0.06	0.64	0.14	0.24	2.04	-0.06	1.04	-0.06
CC[C@H](C)C(=O)O[C@H]1C[C@@H](C)C=C2C=C[C@H](C)[C@H](CC[C@@H]3C[C@@H](O)CC(=O)O3)[C@H]21 [Lovastatin] (top concentration 10000 nM)	3.6	-0.1	-0.1	-0.1	-0.1	-0.1	7.8	0.1	-0.1	-0.1	-0.1	-0.1	0.1	2.5	-0.1	-0.1	2.5	-0.1	0.1	8.4
CN(C)C/C=C/C(=O)Nc1cc2c(Nc3ccc(F)c(Cl)c3)ncnc2cc1O[C@H]1CCOC1 [Afatinib] (top concentration 1000 nM)	-0.84	-0.84	-0.64	-0.84	-0.84	-0.84	-0.84	-0.84	-0.84	-0.84	-0.84	-0.84	0.16	3.06	-0.84	-0.84	1.56	-0.84	-0.34	3.96
COc1cc(OC)cc(N(CCNC(C)C)c2ccc3ncc(-c4cnn(C)c4)nc3c2)c1 [Erdafitinib] (top concentration 1000 nM)	-0.56	-0.46	-0.46	-0.26	-0.56	-0.56	-0.56	-0.46	-0.46	-0.56	-0.56	-0.56	-0.56	6.94	-0.56	1.64	1.74	-0.06	-0.06	0.64
COc1cc2c(cc1OC(C)C)[C@H](c1ccc(Cl)cc1)N(c1ccc(N(C)C[C@H]3CC[C@H](N4CCN(C)C(=O)C4)CC3)cc1)C(=O)C2 [NVP-CGM097] (top concentration 25000 nM)	17.2	18.6	-3.84	-5.64	-3.04	8.16	11.4	8.26	7.06	5.66	-0.44	11.8	-4.44	10.6	8.36	-3.14	10.2	11.7	7.86	13.1
FC(F)c1nc2ccccc2n1-c1nc(N2CCOCC2)nc(N2CCOCC2)n1 [ZSTK474] (top concentration 10000 nM)	1.46	2.56	10.5	-3.14	-7.04	6.76	13.7	3.86	7.46	11.9	0.36	7.26	1.76	18.5	-4.14	-1.04	13.3	0.96	8.46	10.3
CN1CCN(c2ccc3nc(-c4c(N)c5c(F)cccc5[nH]c4=O)[nH]c3c2)CC1 [Dovitinib] (top concentration 10000 nM)	-0.04	0.26	6.86	0.16	-0.14	-0.14	-0.14	0.36	-0.14	-0.14	-0.14	-0.14	-0.14	-0.14	0.46	-0.14	0.36	6.46	1.56	-0.14
COc1cc2nccc(Oc3ccc(NC(=O)NC4CC4)c(Cl)c3)c2cc1C(N)=O [Lenvatinib] (top concentration 2500 nM)	-0.24	6.46	3.86	-0.24	-0.24	-0.14	0.06	1.66	-0.24	-0.24	-0.24	0.36	-0.24	0.76	-0.14	-0.24	-0.14	1.86	2.16	-0.24
